Measurements taken from patent US10597388B2, “Pyridazinone herbicides” (FMC CORPORATION, priority 2014, dated 2020).

Tests used:
Format in all cases: in vivo
[1] = system: ducksalad (Heteranthera limosa); assay: Test B flooded paddy test; conditions: 250 g ai/ha, Flood; visual rating on scale of 0 to 100 where 0 is no effect and 100 is complete control; 13 to 15 d after treatment
Outline: (§1)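 Plants at the 2-leaf stage were flooded to 3 cm above soil, and test compounds were applied directly into the paddy water, which was held at that depth throughout. After 13 to 15 d in a greenhouse, injury was rated visually against untreated controls on a 0–100 scale (0 no effect, 100 complete control).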

[2] = system: barnyardgrass (Echinochloa crus-galli); assay: Test B flooded paddy test; conditions: 250 g ai/ha, Flood; visual rating on scale of 0 to 100 where 0 is no effect and 100 is complete control; 13 to 15 d after treatment
Outline: as §1

[3] = system: sedge, umbrella (small-flower umbrella sedge, Cyperus difformis); assay: Test B flooded paddy test; conditions: 250 g ai/ha, Flood; visual rating on scale of 0 to 100 where 0 is no effect and 100 is complete control; 13 to 15 d after treatment
Outline: as §1

rice (Oryza sativa) = assay: Test B flooded paddy test; conditions: 250 g ai/ha, Flood; visual rating on scale of 0 to 100 where 0 is no effect and 100 is complete control; 13 to 15 d after treatment
Outline: as §1

[4] = system: galium (catchweed bedstraw, Galium aparine); assay: Test A greenhouse herbicide test, postemergence
Outline: (§2)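 Greenhouse postemergence test: formulated chemicals sprayed on one- to two-leaf plants (2 to 10 cm), grown in loam soil blended with sand. Injury assessed visually about 10 d later against untreated controls, scored 0 (no effect) to 100 (complete control).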

[5] = system: blackgrass (Alopecurus myosuroides); assay: Test A greenhouse herbicide test, postemergence
Outline: as §2

[6] = system: wheat (Triticum aestivum); assay: Test A greenhouse herbicide test, pre- and postemergence; conditions: Postemergence
Outline: (§3)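 Seeds sown in loam–sand blend got a preemergence directed soil spray of compound in non-phytotoxic solvent with surfactant. Postemergence treatment was given at 2–10 cm, one- to two-leaf stage. After ~10 d in greenhouse, injury was rated visually vs untreated controls, 0 (no effect) to 100 (complete control).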

[7] = system: ryegrass, Italian (Italian ryegrass, Lolium multiflorum); assay: as above
Outline: as §3

[8] = system: ragweed (common ragweed, Ambrosia elatior); assay: as above
Outline: as §3

[9] = system: barnyardgrass (Echinochloa crus-galli); assay: as above
Outline: as §3

[10] = system: foxtail, giant (giant foxtail, Setaria faberii); assay: as above
Outline: as §3

corn (Zea mays) = assay: as above; conditions: Postemergence
Outline: as §3

kochia (Kochia scoparia) = assay: as above
Outline: as §3

[11] = system: pigweed (Amaranthus retroflexus); assay: as above
Outline: as §3

[12] = 125 g ai/ha, 0 to 100 scale, 0 no effect, 100 complete control
[13] = 500 g ai/ha, visual rating after approx. 10 d, 0 to 100 scale (0 no effect, 100 complete control)
[14] = Postemergence, 125 g ai/ha, 0 to 100 scale, 0 no effect, 100 complete control
[15] = Postemergence, 500 g ai/ha, visual rating after approx. 10 d, 0 to 100 scale (0 no effect, 100 complete control)
[16] = Preemergence, 125 g ai/ha, visual injury rating, 0 to 100 scale (0 no effect, 100 complete control), approx. 10 d
[17] = Preemergence, 500 g ai/ha, 0 to 100 scale where 0 is no effect and 100 is complete control
[18] = 125 g ai/ha, 0 to 100 scale where 0 is no effect and 100 is complete control
[19] = 500 g ai/ha, 0 to 100 scale, 0 is no effect, 100 is complete control
[20] = Postemergence, 125 g ai/ha, 0 to 100 scale where 0 is no effect and 100 is complete control
[21] = Postemergence, 500 g ai/ha, 0 to 100 scale, 0 is no effect, 100 is complete control
[22] = Preemergence, 125 g ai/ha, 0 to 100 scale where 0 is no effect and 100 is complete control
[23] = Preemergence, 500 g ai/ha, 0 to 100 scale, 0 no effect, 100 complete control

## CCOC(=O)Oc1c(C)nn(C)c(=O)c1-c1c([N+](=O)[O-])ccc2ccccc12 [Compound 166]
[1]
  Plant response rating, Ducksalad: 0
[2]
  Plant response rating, Barnyardgrass: 0
[3]
  Plant response rating, Sedge, Umbrella: 0
Rice (Oryza sativa)
  Plant response rating, Rice: 0
[4]; [12]
  Plant response rating, Galium: 70
[4]; [13]
  Plant response rating, Galium: 90
[5]; [12]
  Plant response rating, Blackgrass: 10
[5]; [13]
  Plant response rating, Blackgrass: 30
[6]; [12]
  Plant response rating, Wheat: 0
[6]; [13]
  Plant response rating, Wheat: 20
[7]; [14]
  Plant response rating, Ryegrass, Italian: 40
[7]; [15]
  Plant response rating, Ryegrass, Italian: 90
[7]; [16]
  Plant response rating, Ryegrass, Italian: 40
[7]; [17]
  Plant response rating, Ryegrass, Italian: 90
[8]; [14]
  Plant response rating, Ragweed: 30
[8]; [15]
  Plant response rating, Ragweed: 70
[8]; [16]
  Plant response rating, Ragweed: 70
[8]; [17]
  Plant response rating, Ragweed: 90
[9]; [14]
  Plant response rating, Barnyardgrass: 10
[9]; [15]
  Plant response rating, Barnyardgrass: 20
[9]; [16]
  Plant response rating, Barnyardgrass: 10
[9]; [17]
  Plant response rating, Barnyardgrass: 10
[10]; [14]
  Plant response rating, Foxtail, Giant: 10
[10]; [15]
  Plant response rating, Foxtail, Giant: 40
[10]; [16]
  Plant response rating, Foxtail, Giant: 10
[10]; [17]
  Plant response rating, Foxtail, Giant: 30
Corn (Zea mays); [12]
  Plant response rating, Corn: 20
Corn (Zea mays); [13]
  Plant response rating, Corn: 20
Kochia (Kochia scoparia); [14]
  Plant response rating, Kochia: 50
Kochia (Kochia scoparia); [15]
  Plant response rating, Kochia: 70
Kochia (Kochia scoparia); [16]
  Plant response rating, Kochia: 30
Kochia (Kochia scoparia); [17]
  Plant response rating, Kochia: 90
[11]; [14]
  Plant response rating, Pigweed: 40
[11]; [15]
  Plant response rating, Pigweed: 80
[11]; [16]
  Plant response rating, Pigweed: 80
[11]; [17]
  Plant response rating, Pigweed: 90

## CCC(=O)Oc1c(C)nn(C)c(=O)c1-c1ccc(Cl)c2ccccc12 [Compound 62]
[1]
  Plant response rating, Ducksalad: 20
[2]
  Plant response rating, Barnyardgrass: 20
[3]
  Plant response rating, Sedge, Umbrella: 75
Rice (Oryza sativa)
  Plant response rating, Rice: 0
[4]; [18]
  Plant response rating, Galium: 100
[4]; [19]
  Galium plant response rating: 100
[5]; [18]
  Plant response rating, Blackgrass: 70
[5]; [19]
  Blackgrass plant response rating: 80
[6]; [18]
  Plant response rating, Wheat: 0
[6]; [19]
  Wheat plant response rating: 50
[7]; [20]
  Plant response rating, Ryegrass, Italian: 100
[7]; [21]
  Ryegrass, Italian plant response rating: 100
[7]; [22]
  Ryegrass, Italian plant response rating: 100
[7]; [23]
  Plant response rating, Ryegrass, Italian: 100
[8]; [20]
  Plant response rating, Ragweed: 100
[8]; [21]
  Ragweed plant response rating: 100
[8]; [22]
  Ragweed plant response rating: 70
[8]; [23]
  Plant response rating, Ragweed: 90
[9]; [20]
  Plant response rating, Barnyardgrass: 70
[9]; [21]
  Barnyardgrass plant response rating: 90
[9]; [22]
  Barnyardgrass plant response rating: 50
[9]; [23]
  Plant response rating, Barnyardgrass: 90
[10]; [20]
  Plant response rating, Foxtail, Giant: 80
[10]; [21]
  Foxtail, Giant plant response rating: 90
[10]; [22]
  Foxtail, Giant plant response rating: 50
[10]; [23]
  Plant response rating, Foxtail, Giant: 90
Corn (Zea mays); [18]
  Plant response rating, Corn: 10
Corn (Zea mays); [19]
  Corn plant response rating: 30
Kochia (Kochia scoparia); [20]
  Plant response rating, Kochia: 100
Kochia (Kochia scoparia); [21]
  Kochia plant response rating: 100
Kochia (Kochia scoparia); [22]
  Kochia plant response rating: 90
Kochia (Kochia scoparia); [23]
  Plant response rating, Kochia: 90
[11]; [20]
  Plant response rating, Pigweed: 100
[11]; [21]
  Pigweed plant response rating: 100
[11]; [22]
  Pigweed plant response rating: 100
[11]; [23]
  Plant response rating, Pigweed: 100
